Molecules are shown by their SMILES.

A short description of the series: In vivo pharmacokinetics study of carfilzomib formulations, plasma carfilzomib by LC-MS. Conditions: BALB/c nude, mouse, mice, intravenous via tail vein, 5.0 mg/kg. Here is the method: The carfilzomib-loaded liposome was prepared based on the description in Example 17. In-vivo pharmacokinetics study was carried out in BALB/c nude mice. Carfilzomib drug solution (free drug) and liposomal carfilzomib were administered intravenously via the tail vein into the mice and the plasma concentration of carfilzomib of both formulations were monitored over time by LC-MS. The injection dose of both drug formulations was 5.0 mg/kg. After intravenous administration, blood was collected at pre-determined time points (3 mice per time point) and was placed into EDTA coated micro containers. The samples were then centrifuged to separate plasma. Plasma levels of carfilzomib were quantified by using LC-MS. PK parameters were then calculated from measured drug plasma concentrations over time.

`CC(C)C[C@H](NC(=O)[C@H](CCc1ccccc1)NC(=O)CN1CCOCC1)C(=O)N[C@@H](Cc1ccccc1)C(=O)N[C@@H](CC(C)C)C(=O)[C@@]1(C)CO1` [Free carfilzomib, carfilzomib] had an AUC(0-t) of 486 ng·h/mL, a clearance of 170 mL/min/kg and a half-life of 19.2 min. Further, the Vd (read-out: Vdss) amounted to 5.36 L/kg.

The term AUC(0-t) denotes exposure summed from dosing to a finite time, without extrapolation to infinity. A high value points to high exposure. One may read the clearance as a measure of how efficiently the substance is removed, as volume per time. High values mean efficient removal, low ones inefficient removal. By half-life is commonly meant the time in which the quantity being followed falls by half. The low end stands for rapid decline, the high end for slow decline.

Source of the values: patent US20260130856A1, “LIPOSOME COMPOSITIONS FOR DELIVERY OF COMPOUNDS AND METHODS THEREOF” (NanoTech Pharma Inc., priority 2022, published 2026).
